Among the data in ChEMBL document CHEMBL6087391, “Novel bibenzyl compound 8Ae induces apoptosis and inhibits glycolysis by detaching hexokinase 2 from mitochondria in A549 cells” (Bioorg Med Chem, 2024) are Activity, inhibition and IC50 values, retold here.

Usually IC50 stands for the concentration that gives 50% inhibition.

Calls of active or inactive are those of the source. The rule behind the calls is not given here.

Data set [1] relates to A549. In words: Induction of apoptosis in human A549 cells assessed as late apoptotic cells at 5 uM incubated for 48 hrs by Annexin V-FITC/PI staining based flow cytometry. In kind it is functional. Background: In flow cytometry, cells or beads pass a laser one at a time.
Data set [2] concerns A549. The data set is described as follows: Induction of apoptosis in human A549 cells assessed as downregulation of Bcl-2 expression at 1 to 10 uM incubated for 48 hrs by Western blotting analysis. The class given is functional, cell-based. As to conditions: dose 1-10 µM. For orientation: In western blotting, separated proteins are transferred to a membrane and probed.
Another data set has as its system Mitochondrial membrane. The data set is described as follows: Induction of mitochondrial membrane potential loss in human A549 cells at 1 to 10 uM incubated for 48 hrs by JC-1 dye based fluorescence microscopic analysis. In kind it is cell membranes. As to conditions: dose 1-10 µM.
Data set [3] concerns A549. In words: Inhibition of glycolysis in human A549 cells assessed as reduction in glucose uptake incubated for 48 hrs by Amplex red dye based spectrophotometry. In kind it is functional, cell-based.
Data set [4] deals with A549. In words: Induction of apoptosis in human A549 cells assessed as upregulation of Bax expression at 1 to 10 uM incubated for 48 hrs by Western blotting analysis. The class given is functional, cell-based. Particulars: dose 1-10 µM.
Data set [5] has as its system A549. In words: Inhibition of glycolysis in human A549 cells assessed as downregulation of HK2 expression incubated for 48 hrs by Western blotting analysis. The class given is functional, cell-based.
Data set [6] has as its system A549. In words: Induction of apoptosis in human A549 cells assessed as upregulation of Cyt C expression in cytosol fraction at 1 to 10 uM incubated for 48 hrs by Western blotting analysis. In kind it is functional, cell-based. As to conditions: dose 1-10 µM.
For data set [7], the system named is A549. In words: Antiproliferative activity against human A549 cells assessed as reduction in cell viability incubated for 48 hrs by MTT assay. The class given is functional, cell-based.
The subject of data set [8] is A549. The data set is described as follows: Inhibition of glycolysis in human A549 cells assessed as downregulation of HK2 expression in cytosol fraction at 1 to 10 uM incubated for 48 hrs by Western blotting analysis. Particulars: dose 1-10 µM. In kind it is functional, cell-based.
In data set [9] the test system is A549. In words: Induction of apoptosis in human A549 cells assessed as late apoptotic cells at 10 uM incubated for 48 hrs by Annexin V-FITC/PI staining based flow cytometry. The class given is functional.
In data set [10] the test system is A549. The data set is described as follows: Induction of apoptosis in human A549 cells assessed as increase in ratio of Bax/Bcl-2 at 1 to 10 uM incubated for 48 hrs by Western blotting analysis. The class given is functional, cell-based. Particulars: dose 1-10 µM.
The next data set concerns BEAS-2B. In words: Antiproliferative activity against human BEAS-2B cells assessed as inhibition of cell growth incubated for 48 hrs by MTT assay. The class given is toxicity, cell-based. In general terms: Tetrazolium assays rely on reduction of a dye to a coloured formazan, in cell work by metabolically active cells.
For data set [11], the system named is A549. In words: Inhibition of glycolysis in human A549 cells assessed as reduction in lactate production at 10 uM incubated for 48 hrs by trypan blue staining based spectrophotometry. The class given is functional.
The subject of data set [12] is A549. In words: Induction of apoptosis in human A549 cells assessed as early apoptotic cells at 5 uM incubated for 48 hrs by Annexin V-FITC/PI staining based flow cytometry. The class given is functional.
Data set [13] has as its system A549. The data set is described as follows: Inhibition of glycolysis in human A549 cells assessed as reduction in lactate production at 5 uM incubated for 48 hrs by trypan blue staining based spectrophotometry. The class given is functional.
The test system of data set [14] is A549. In words: Antiproliferative activity against human A549 cells assessed as inhibition of cell growth incubated for 48 hrs by MTT assay. In kind it is functional, cell-based. Particulars: A549, 48 h.
Data set [15] concerns A549. In words: Induction of apoptosis in human A549 cells assessed as late apoptotic cells at 1 uM incubated for 48 hrs by Annexin V-FITC/PI staining based flow cytometry. The class given is functional.
Data set [16] has as its system A549. In words: Induction of apoptosis in human A549 cells assessed as downregulation of AKT expression at 1 to 10 uM incubated for 48 hrs by Western blotting analysis. The class given is functional, cell-based. As to conditions: dose 1-10 µM.
Data set [17] relates to A549. The data set is described as follows: Inhibition of glycolysis in human A549 cells assessed as downregulation of GLUT1 expression in cytosol fraction at 1 to 10 uM incubated for 48 hrs by Western blotting analysis. In kind it is functional, cell-based. As to conditions: dose 1-10 µM.
For data set [18], the system named is A549. In words: Induction of apoptosis in human A549 cells assessed as early apoptotic cells at 10 uM incubated for 48 hrs by Annexin V-FITC/PI staining based flow cytometry. The class given is functional.
In data set [19] the test system is A549. In words: Inhibition of glycolysis in human A549 cells assessed as reduction in lactate production at 1 uM incubated for 48 hrs by trypan blue staining based spectrophotometry. The class given is functional.
The subject of data set [20] is A549. In words: Induction of apoptosis in human A549 cells assessed as downregulation of Cyt C expression in mitochondrial fraction at 1 to 10 uM incubated for 48 hrs by Western blotting analysis. The class given is functional, cell-based. As to conditions: dose 1-10 µM.
Data set [21] has as its system A549. In words: Inhibition of glycolysis in human A549 cells assessed as downregulation of GLUT1 expression at 1 to 10 uM incubated for 48 hrs by Western blotting analysis. As to conditions: dose 1-10 µM. The class given is functional, cell-based.
Data set [22] has as its system A549. In words: Inhibition of glycolysis in human A549 cells assessed as decrease in HK2 activity incubated for 48 hrs by spectrophotometric assay. In kind it is functional, cell-based. As to conditions: A549, 48 h.
The test system of data set [23] is A549. In words: Induction of apoptosis in human A549 cells assessed as downregulation of AKT phosphorylation at 1 to 10 uM incubated for 48 hrs by Western blotting analysis. The class given is functional, cell-based. As to conditions: dose 1-10 µM.
For data set [24], the system named is A549. The data set is described as follows: Inhibition of glycolysis in human A549 cells assessed as downregulation of HK2 expression in mitochondrial fraction at 1 to 10 uM incubated for 48 hrs by Western blotting analysis. The class given is functional, cell-based. As to conditions: dose 1-10 µM.
Data set [25] deals with A549. In words: Induction of mitochondria mediated apoptosis in human A549 cells assessed as reduction in HK2 level at 1 to 10 uM incubated for 48 hrs by immunofluorescence confocal microscopic analysis. In kind it is functional, cell-based. Particulars: dose 1-10 µM.
The subject of data set [26] is A549. The data set is described as follows: Induction of apoptosis in human A549 cells assessed as early apoptotic cells at 1 uM incubated for 48 hrs by Annexin V-FITC/PI staining based flow cytometry. In kind it is functional.
The subject of a further data set is MDA-MB-231. The data set is described as follows: Antiproliferative activity against human MDA-MB-231 cells assessed as inhibition of cell growth incubated for 48 hrs by MTT assay. The class given is functional, cell-based. Particulars: MDA-MB-231, 48 h.
Data set [27] concerns A549. The data set is described as follows: Induction of mitochondria mediated apoptosis in human A549 cells assessed as reduction in HK2 level at […] incubated for 48 hrs by immunofluorescence confocal microscopic analysis. In kind it is functional, cell-based.

As for `COc1cc(CCc2ccccc2Cl)cc(OC)c1O`, the Activity was 24.7% in the data set on A549 [1]; “Dose-dependent-effect” in the data set with A549 [7]; 34.5% with A549 [9]; “Toxic” with BEAS-2B; 3.91 mmol/L in the data set with A549 [11]; 30.9% in the data set with A549 [12]. The Activity with A549 [13] is listed as 4.38 mmol/L; in the data set with A549 [15], 21.6%; in the data set with A549 [18], 33.53%; in the data set on A549 [19] it was 4.54 mmol/L; in the data set with A549 [26], 16.9%. Moreover, the result in the data set with A549 [2], with Mitochondrial membrane, with A549 [4], in the data set on A549 [6], with A549 [10] and in the data set on A549 [20] was Active. Further, the result with A549 [23] and in the data set on A549 [25] was Active. The inhibition result with A549 [3], with A549 [5] and in the data set on A549 [24] was “Dose-dependent-effect” in each case. Moreover, the inhibition entry in the data set on A549 [8] and in the data set on A549 [17] was “inactive” throughout. For the same molecule, the IC50 with A549 [14] is 2.72 µM; in the data set on A549 [22], approximately 10 µM; in the data set on MDA-MB-231, 19.2 µM. For the same molecule, in the data set with A549 [16], the outcome was inactive. The inhibition result in the data set on A549 [21] was “Active”.

For `OC[C@H]1OC(O)C[C@@H](O)[C@@H]1O` (some centres not stated), the result in the data set with A549 [27] was Active.

Consider `CC(C)=CCC[C@]1(C)C=Cc2c(O)c3c(c(CC=C(C)C)c2O1)O[C@]12C(=C[C@@H]4C[C@H]1C(C)(C)O[C@@]2(C/C=C(/C)C(=O)O)C4=O)C3=O` [GAMBOGIC ACID], for which the Activity worked out at 30.2% in the data set with A549 [9] and 30.67% with A549 [18].
